Measurements taken from ChEMBL document CHEMBL1201862, “PubChem BioAssay data set” (2004).
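Each compound was tested at five concentrations against cells in 96-well plates for 48 hours. The concentration for 50% growth inhibition is given as GI50.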 Active and inactive are the calls of the source. Cut-off read from the data, not from the text of the source: active = GI50 up to about 1.1 µM and inactive = higher.

Tests used:
Test in all cases: growth of human tumour cells (NCI), 48 h
M19-MEL = test system: M19-MEL
XF498 = test system: XF498
KM-20L2 = test system: KM-20L2
HOP-18 = test system: HOP-18
SNB-78 = test system: SNB-78
DMS-114 = test system: DMS-114
DMS-273 = test system: DMS-273
LXFL 529 = test system: LXFL 529
RXF 631 = test system: RXF 631

Measured: GI50

C=C(C)CC(C(=O)O)c1ccc(C)cc1 (centres undefined)
inactive: M19-MEL > 100 µM | XF498 > 100 µM | KM-20L2 > 100 µM | HOP-18 > 100 µM | SNB-78 > 100 µM | DMS-114 > 100 µM | DMS-273 > 100 µM

COc1cc(Nc2nc3cc(C(F)(F)F)ccc3nc2-c2ccccc2)cc(OC)c1OC
inactive: XF498 32.5 µM | SNB-78 46.2 µM | DMS-114 > 100 µM | LXFL 529 > 100 µM | RXF 631 61.8 µM | DMS-273 22.8 µM

NC(=O)/N=C1\NC(Cc2ccccc2)C(=O)N1Cc1ccccc1 (centres undefined)
inactive: M19-MEL > 100 µM | XF498 35.6 µM | KM-20L2 > 100 µM | SNB-78 > 100 µM | DMS-114 > 100 µM | LXFL 529 > 100 µM | DMS-273 > 100 µM

CCN1C(=O)/C(=C\c2coc3ccccc3c2=O)SC1=S
inactive: M19-MEL > 100 µM | XF498 40 µM | KM-20L2 > 100 µM | HOP-18 80.4 µM | SNB-78 56.8 µM | DMS-114 > 100 µM | LXFL 529 > 100 µM | DMS-273 59 µM

CSC1CC2C(CC1(C)SC)C2(C)C (centres undefined)
inactive: M19-MEL 37.2 µM | XF498 19.7 µM | SNB-78 74.3 µM | LXFL 529 > 100 µM | DMS-273 45.4 µM

CS(=O)(=O)c1cc(=O)c2ccccc2s1
inactive: M19-MEL 7.69 µM | XF498 2.14 µM | KM-20L2 11.7 µM | HOP-18 3.85 µM | SNB-78 4.99 µM | DMS-114 4.82 µM | LXFL 529 1.63 µM | RXF 631 11 µM | DMS-273 8.77 µM

Sc1nnc(-c2ccccc2)n1/N=C\c1ccc(-c2ccc(Cl)cc2)o1
inactive: M19-MEL > 100 µM | KM-20L2 > 100 µM | SNB-78 > 100 µM | LXFL 529 > 100 µM

O=C(c1ccccc1)c1nnc(C(=O)c2ccccc2)nn1
inactive: M19-MEL > 344 µM | KM-20L2 > 344 µM | HOP-18 > 344 µM | SNB-78 170 µM | LXFL 529 266 µM | DMS-273 > 344 µM

CN(C)CC1CCCC/C1=N/OC(=O)c1ccc(Cl)c(Cl)c1 (centres undefined)
inactive: M19-MEL > 100 µM | KM-20L2 > 100 µM | HOP-18 > 100 µM | DMS-114 > 100 µM | LXFL 529 > 100 µM | RXF 631 > 100 µM | DMS-273 > 100 µM

CCOc1cccc2cccnc12
inactive: XF498 > 100 µM | KM-20L2 > 100 µM | HOP-18 57.5 µM | DMS-114 > 100 µM | LXFL 529 > 100 µM

Nc1ccc2c(c1)CC1c3ccccc3C(C2)c2ccccc21
inactive: M19-MEL > 100 µM | KM-20L2 > 100 µM | HOP-18 > 100 µM | SNB-78 > 100 µM | DMS-114 > 100 µM | LXFL 529 > 100 µM | DMS-273 > 100 µM

CCCCCCCCCCCCCCCCc1c(C(=O)OC)[nH]c(=S)[nH]c1=O
inactive: M19-MEL > 50 µM | XF498 > 50 µM | KM-20L2 > 50 µM | HOP-18 > 50 µM | SNB-78 > 50 µM | LXFL 529 > 50 µM | RXF 631 > 50 µM | DMS-273 > 50 µM

COc1ccc(/C(=C/n2ccnc2)C(O)c2ccc(OC)c(OC)c2)cc1OC (centres undefined)
inactive: M19-MEL > 100 µM | KM-20L2 > 100 µM | HOP-18 > 100 µM | DMS-273 > 100 µM

CC1=NC(C(C)C)C(=O)O1 (centres undefined)
inactive: M19-MEL > 100 µM | XF498 > 100 µM | KM-20L2 > 100 µM | HOP-18 > 100 µM | SNB-78 > 100 µM | DMS-114 24.6 µM | LXFL 529 > 100 µM | RXF 631 > 100 µM | DMS-273 56 µM

O=C(O)C(CS)Nc1c2ccccc2[n+]([O-])c2ccccc12 (centres undefined)
inactive: M19-MEL > 100 µM | KM-20L2 > 100 µM | HOP-18 > 100 µM | SNB-78 > 100 µM | DMS-114 > 100 µM | LXFL 529 53.7 µM | RXF 631 > 100 µM | DMS-273 > 100 µM

CN(C)CCC(CCN(C)C)=NO
inactive: M19-MEL > 100 µM | KM-20L2 > 100 µM | HOP-18 > 100 µM | SNB-78 > 100 µM | DMS-114 > 100 µM | LXFL 529 > 100 µM | RXF 631 > 100 µM | DMS-273 > 100 µM

CSC1=NC=CCN1C
inactive: M19-MEL > 100 µM | KM-20L2 > 100 µM | HOP-18 > 100 µM | DMS-114 > 100 µM | LXFL 529 > 100 µM | DMS-273 > 100 µM

CCCCCCCCC(=O)CCCCCCCCC(=O)O
inactive: M19-MEL 47.5 µM | XF498 34.2 µM | KM-20L2 25.9 µM | HOP-18 19.2 µM | SNB-78 > 100 µM | DMS-114 23 µM | LXFL 529 27 µM | RXF 631 21 µM | DMS-273 25.3 µM

CCCCCCCC/C=C1\CCC(CN(C)C)C1=O (centres undefined)
inactive: M19-MEL 3.36 µM | XF498 6.22 µM | KM-20L2 7.6 µM | HOP-18 19.5 µM | SNB-78 7.45 µM | DMS-114 4.01 µM | LXFL 529 1.61 µM | RXF 631 5.64 µM | DMS-273 2.43 µM

O=C1C2C3C=CC(C2C(=O)N1COP(=O)(O)O)C1C2C(=O)N(COP(=O)(O)O)C(=O)C2C31 (centres undefined)
inactive: M19-MEL > 100 µM | XF498 > 100 µM | KM-20L2 > 100 µM | HOP-18 > 100 µM | SNB-78 > 100 µM | DMS-114 > 41.7 µM | LXFL 529 > 100 µM | DMS-273 > 41.4 µM

C=C[C@@]1(C)CCC2(O)C(CCC3C2(C)CCC[C@@]3(C)COC(=O)CC(=O)OC)C1 (some centres undefined)
inactive: XF498 21.6 µM | KM-20L2 18.7 µM | SNB-78 26.1 µM | LXFL 529 17.3 µM | RXF 631 19.1 µM

COc1ccc(C2Oc3cc(OC)c(O)c(C)c3[C@H]2C)cc1 (some centres undefined)
inactive: M19-MEL > 100 µM | KM-20L2 > 100 µM | HOP-18 19 µM | SNB-78 > 100 µM | DMS-114 58.7 µM | LXFL 529 71.6 µM | DMS-273 73.3 µM

O=C(O)c1ccccc1NS(=O)(=O)c1ccc(Cl)cc1
inactive: M19-MEL > 100 µM | XF498 > 100 µM | KM-20L2 > 100 µM | HOP-18 > 100 µM | SNB-78 > 100 µM | DMS-114 > 100 µM | LXFL 529 > 100 µM | DMS-273 > 100 µM

C=C1C(=O)O[C@H]2[C@H]1[C@H](OC(=O)/C(C)=C\C)CC(=C)[C@@H]1[C@H](O)[C@H]3O[C@@]3(C)[C@@]12O [EUPATUNDIN]
inactive: M19-MEL > 100 µM | XF498 > 100 µM | KM-20L2 > 100 µM | HOP-18 > 100 µM | SNB-78 > 100 µM | DMS-114 > 100 µM | LXFL 529 > 100 µM | RXF 631 > 100 µM | DMS-273 > 100 µM
